The text below walks through data of US20070225356A1, “Preventive and/or Therapeutic Agent for Chronic Sinusitis” (Kyowa Hakko Kogo Co., Ltd, priority 2004, published 2007).

The subject of test [1] is patient diagnosed as chronic sinusitis. The test is described as follows: Test Example 1: effect of olopatadine hydrochloride on chronic sinusitis, one patient, CT and subjective symptoms. In kind it is in vivo, human. To be noted: for improvement of symptoms (polyp, headache, right nasal obstruction, purulent nasal discharge, closure of right olfactory cleft): administration of Klaricid and Neuzym for 2 months or more, same patient, before olopatadine hydrochloride. As for the experimental part: A patient diagnosed as chronic sinusitis was orally daily administered with olopatadine hydrochloride (Allelock™ 5 mg tablet; Kyowa Hakko Kogyo Co., Ltd.) alone in a dose of one tablet two times (after breakfast and before bedtime) a day (10 mg/day) everyday. Before the administration of olopatadine hydrochloride and 2 months after the administration, computed tomography (CT) was performed to observe changes in symptoms. […] In administration of Klaricid™ (general name: clarithromycin) and Neuzym™ (general name: lysozyme chloride) for 2 months or more, improvement of these symptoms were not observed.

The subject of test [2] is patients with chronic sinusitis complicated with perennial allergic rhinitis. Kind of test: Test Example 2: degree of improvement in symptoms, 24 patients, eighth week. The following applies: oral 10 mg/day, other medicines may be combined. In kind it is in vivo, human. The method, then: Patients (24 patients, average age 33.8 years old, duration 61.5±59.7 days) with chronic sinusitis complicated with perennial allergic rhinitis were orally administered with olopatadine hydrochloride (Allelock™ 5 mg tablet; Kyowa Hakko Kogyo Co., Ltd.) in a dose of one tablet two times-(after breakfast and before bedtime) a day (10 mg/day) everyday. In this case, Mucodyne™ (general name: carbocysteine), Dasen™ (general name: serrapeptase), Polaramine™ (general name: d-chlorpheniramine maleate), Klaricid™ (general name: clarithromycin) or the like may be combined. The combined use with such a medicine was filled in a survey sheet. Such a medicine had been given for treatment before this test. At the eighth week of the administration, degrees of improvement in 1) sneezing, 2) nasal drip, 3) nasal obstruction, 4) interference with daily life, 5) mucosal swelling, 6) headache and head heaviness, and 7) postnasal drip were examined for each patient. The degree of each symptom determined with reference according to “Nasal Allergy Diagnosis Guideline for 2002 (Revised Fourth Edition)”, and the degree of improvement in each symptom was evaluated for each patient having a corresponding symptom before the administration on the basis of the four stages, i.e., disappearance, significant improvement, improvement, and no change. In the case of more than improvement (disappearance, significant improvement, or improvement), the rate of improvement was evaluated as “effective” and calculated as a rate (%) of an effective number of patients relative to the number of patients (number of cases) having a corresponding symptom before administration.

In test [3] the test system is patient diagnosed as chronic sinusitis. The test is described as follows: Test Example 3: effect 2 on chronic sinusitis, one patient, 21-day schedule, plain radiography. In kind it is in vivo, human. The method, then:
A patient diagnosed as chronic sinusitis was administered with olopatadine hydrochloride (Allelock™ 5 mg tablet; Kyowa Hakko Kogyo Co., Ltd.) according to the prescription schedule below (21 days in total). 1. First 7 Days (Co-Administration) Three medicines were dosed together according to the following prescription. Also, frequently used SG granules were also prescribed. Olopatadine hydrochloride 5 mg tablet: oral dose of one tablet two times a day for 7 days (10 mg/day) Gatiflo™ (general name: gatifloxacin) 200 mg tablet: oral dose of one tablet two times a day for 4 days (400 mg/day) Mucodyne™ (general name: carbocysteine) 500 mg tablet: oral dose of one tablet three times a day for 7 days (1500 mg/day) 2. Next 14 Days (Single Administration of Olopatadine Hydrochloride) Furthermore, olopatadine hydrochloride was given according to the following prescription: Olopatadine hydrochloride 5 mg tablet: oral dose of one tablet two times a day for 14 days (10 mg/day) Plain radiography was conducted before the administration of the above medicines and 21 days after the administration to observe changes in the symptoms.

Test [4] has the same test system. The test is described as follows: Test Example 4: effect 3 on chronic sinusitis, one patient, 35-day schedule, plain radiography. In kind it is in vivo, human. The method, then:
A patient diagnosed as chronic sinusitis was administered with olopatadine hydrochloride (Allelock™ 5 mg tablet; Kyowa Hakko Kogyo Co., Ltd.) according to the prescription schedule below (35 days in total). 1. First 7 Days (Co-Administration) Three medicines were dosed together according to the following prescription. Olopatadine hydrochloride 5 mg tablet: oral dose of one tablet two times a day for 7 days (10 mg/day) Gatiflo™ (general name: gatifloxacin) 200 mg tablet: oral dose of one tablet two times a day for 4 days (400 mg/day) Mucodyne™ (general name: carbocysteine) 500 mg tablet: oral dose of one tablet three times a day for 7 days (1500 mg/day) 2. Next 14 Days (Co-Administration) Two medicines were further dosed together according to the following prescription. Olopatadine hydrochloride 5 mg tablet: oral dose of one tablet two times a day for 14 days (10 mg/day) Mucodyne™ 500 mg table: oral dose of one tablet three times a day for 14 days (1500 mg/day) 3. Next 14 Days (Single Administration) Furthermore, olopatadine hydrochloride was given according to the following prescription: Olopatadine hydrochloride 5 mg table: oral dose of one tablet two times a day for 14 days (10 mg/day) Plain radiography was conducted before the administration of the above medicines and 35 days after the administration to observe changes in the symptoms.

Test [5] relates to patient with chronic sinusitis complicated with allergic rhinitis. Kind of test: Test Example 5: transitions of symptoms, CT and plain radiography, one patient. Also on record: key to Color of inferior turbinate mucosa (objective symptom grade): +++: (Pale); ++: (Red); +: (Light red); −: (Normal); key to Postnasal drip (subjective symptom grade): +++: Always; ++: Frequently; +: Sometimes; −: No. In kind it is in vivo, human. As for the experimental part: A patient with chronic sinusitis complicated with allergic rhinitis was orally administered with olopatadine hydrochloride (Allelock™ 5 mg tablet; Kyowa Hakko Kogyo Co., Ltd.) alone in a dose of one tablet two times a day for 2 months (10 mg/day). The patient had developed serious sneezing, nasal obstruction, and postnasal drip about 5 and half years ago. The patient discontinued treatment when the subjective symptoms were relieved by intermittent medication. However, improvements in the symptoms were not observed before the start of treatment by administration of the above olopatadine hydrochloride. In addition, in a nasal discharge eosinophil test (an intermediate state between clusters of eosinophils and observable weak dispersion of eosinophils in nasal discharge) and a scratch test (house dust, candida, cedar, and orchard grass), the patient was positive before the start of administration, and the chronic sinusitis of the patient was recognized to be complicated with allergic rhinitis. […] The degree of each symptom was decided on the basis of Tables 3 and 4 in reference to “Nasal Allergy Diagnosis Guideline for 2002 (Revised Fourth Edition)”. In addition, computed tomography (CT) was conducted before the administration of olopatadine hydrochloride and 1 month after and 2 months after the administration, and plain radiography (Waters method) was conducted before the administration of olopatadine hydrochloride and 2 months after the administration to observe changes in the symptoms.

The test system of another test is allergic rhinitis. The following applies: Phase III test; cited from earlier work.
The test system of test [6] is experimental allergic rhinitis model. To be noted: guinea pigs; cited from earlier work.
Setting [7] is: oral 10 mg/day alone for 2 months, one patient.
Setting [8] is: first 7 days, co-administration with Gatiflo (gatifloxacin) and Mucodyne (carbocysteine), oral 10 mg/day.
The mark [9] stands for this setting: next 14 days, single administration, oral 10 mg/day.
Where [10] appears, read: next 14 days, co-administration with Mucodyne (carbocysteine), oral 10 mg/day.
Setting [11] is: Two weeks after administration, oral 10 mg/day alone, before administration ++.
[12] abbreviates: single administration for 2 months, oral 10 mg/day.

Counter-ions that a name gives are not always drawn.

For the compound lysozyme chloride [Neuzym], the “improvement of symptoms (polyp, headache, right nasal obstruction, purulent nasal discharge, closure of right olfactory cleft)” value in test [1] is on record as “not observed”.

For `CC[C@H]1OC(=O)[C@H](C)[C@@H](O[C@H]2C[C@@](C)(OC)[C@@H](O)[C@H](C)O2)[C@H](C)[C@@H](O[C@@H]2O[C@H](C)C[C@H](N(C)C)[C@H]2O)[C@](C)(OC)C[C@@H](C)C(=O)[C@H](C)[C@@H](O)[C@]1(C)O` [Klaricid, clarithromycin], the “improvement of symptoms (polyp, headache, right nasal obstruction, purulent nasal discharge, closure of right olfactory cleft)” value in test [1] was “not observed”.

Turning to `CN(C)CC/C=C1/c2ccccc2COc2ccc(CC(=O)O)cc21` [olopatadine hydrochloride], in test [1] (setting [7]), the “polyp and soft-tissue density mass which filled the right nasal cavity (CT image)” value is on record as “substantially disappeared”; the “soft-tissue density area which filled the right ethmoidal, right sphenoidal and right frontal sinus (CT image)” value is “substantially disappeared”; the “subjective symptoms such as nasal drip and headache” value is given as “disappeared”; the “swelling of the inside wall toward the nasal cavity side, closure of the right olfactory cleft due to mucosal thickening (CT image)” value was “relieved”. In addition, in test [2] (3 cases), the “Postnasal drip: Rate of improvement” value was 100%, the “Postnasal drip: patients with Disappearance” value is on record as 3, the “Postnasal drip: patients with Improvement” value is on record as 0 and the “Postnasal drip: patients with No change” value came to 0. Moreover, the “Postnasal drip: patients with Significant improvement” value in test [2] (3 cases) was determined as 0. In test [2] (5 cases), the “Headache, head heaviness: Rate of improvement” value was determined as 100%; the “Headache, head heaviness: patients with Disappearance” value came to 5; the “Headache, head heaviness: patients with Improvement” value was 0; the “Headache, head heaviness: patients with No change” value is listed as 0. In addition, in test [2] (5 cases), the “Headache, head heaviness: patients with Significant improvement” value worked out at 0. Moreover, in test [2] (12 cases), the “Sneezing: Rate of improvement” value is listed as 91.7%, the “Sneezing: patients with Disappearance” value is 8, the “Sneezing: patients with Improvement” value is 3 and the “Sneezing: patients with No change” value came out at 1. For the same compound, the “Sneezing: patients with Significant improvement” value in test [2] (12 cases) stood at 0. In test [2] (15 cases), the “Nasal drip: Rate of improvement” value was determined as 73.3%, the “Nasal drip: patients with Disappearance” value turned out to be 4, the “Nasal drip: patients with Improvement” value was found to be 5 and the “Nasal drip: patients with No change” value is 4. Further, in test [2] (15 cases), the “Nasal drip: patients with Significant improvement” value turned out to be 2. In addition, in test [2] (16 cases), the “Interference with daily life: Rate of improvement” value is reported as 87.5%, the “Interference with daily life: patients with Disappearance” value worked out at 3, the “Interference with daily life: patients with Improvement” value came out at 8 and the “Interference with daily life: patients with No change” value turned out to be 2. Further, in test [2] (16 cases), the “Interference with daily life: patients with Significant improvement” value stood at 3, the “Mucosal Swelling: Rate of improvement” value amounted to 87.5%, the “Mucosal Swelling: patients with Disappearance” value turned out to be 0 and the “Mucosal Swelling: patients with Improvement” value was 13. For the same compound, in test [2] (16 cases), the “Mucosal Swelling: patients with No change” value is on record as 2, the “Mucosal Swelling: patients with Significant improvement” value is on record as 1, the “Nasal obstruction: Rate of improvement” value is listed as 87.5% and the “Nasal obstruction: patients with Disappearance” value was determined as 4. For the same compound, in test [2] (16 cases), the “Nasal obstruction: patients with Improvement” value is 7, the “Nasal obstruction: patients with No change” value is given as 2 and the “Nasal obstruction: patients with Significant improvement” value was determined as 3. In addition, the “shadows in the plain radiograph indicating sinusitis inflammation in the ethmoidal sinus and right and left maxillary sinuses” value in test [3] (after a total of 21 days (7 days co-administration, 14 days single)) was “completely disappeared”. Further, in test [3] (setting [8]), the “cheek pains (facial pain) and headache” value is on record as “disappeared”; the “nasal symptoms such as purulent nasal discharge and nasal obstruction” value is on record as “improved”. Moreover, in test [3] (setting [9]), the “nasal mucosal swelling and the like” value is “unobserved”; the “nasal symptoms such as purulent nasal discharge and nasal obstruction” value is reported as “disappeared”. In addition, the “shadows in the plain radiograph indicating sinusitis inflammation in the ethmoidal sinus and right and left maxillary sinuses” value in test [4] (after a total of 35 days) is recorded as “completely disappeared”. Also, in test [4] (setting [8]), the “left cheek pain (facial pain) and malaise” value is “disappeared”; the postnasal drip result is given as “not improved”; the purulent nasal discharge result was “decreased and substantially disappeared”. Besides, the all subjective symptoms entry in test [4] (last 14 days, single administration, oral 10 mg/day) is “disappeared”. Besides, in test [4] (setting [10]), the “nasal mucosal swelling and the like” value is on record as “disappeared”; the “nasal symptoms such as purulent nasal discharge and postnasal drip” value is “disappeared”. Also, the “Color of inferior turbinate mucosa (objective symptom grade)” value in test [5] (One month after administration, oral 10 mg/day alone, before administration ++) is on record as “−”. For the same compound, in test [5] (setting [11]), the “Color of inferior turbinate mucosa (objective symptom grade)” value was “−” and the “Postnasal drip (subjective symptom grade)” value is on record as “+”. Also, the “mucosal swelling in the ethmoidal sinus and the maxillary sinus (CT image)” value in test [5] (single administration for 1 month, oral 10 mg/day) is recorded as “significantly relieved”. Also, in test [5] (setting [12]), the “mucosal swelling in the ethmoidal sinus and the maxillary sinus (CT image)” value is “substantially disappeared”; the “shadows observed in the maxillary sinus indicating inflammation of chronic sinusitis (plain radiograph)” value is recorded as “disappeared”.

In the case of `CN(C)CC/C=C1/c2ccccc2COc2ccc(CC(=O)O)cc21` [compound 1, (Z)-11-(3-dimethylaminopropylidene)-6,11-dihydrodibenzo[b,e]oxepine-2-acetic acid], the “nasal congestion of allergic rhinitis” value with allergic rhinitis is reported as “highly improve”. Further, in test [6], the nasal congestion reaction result is given as “inhibitory action”.
